The source of these data is publication PMC7201828, “Comparison of Inhibitor and Substrate Selectivity between Rodent and Human Vascular Adhesion Protein-1” (Mediators of Inflammation, 2020).

“Also recorded” adds a separate entry of the source. Where two headings read alike, the source gives them in different places.

The target of data set [1] is T1, recombinant human VAP-1 (rhVAP-1) (Homo sapiens, UniProt Q16853).
T1 construct: purchased R&D Systems 3957-AO-010; host or cells: Spodoptera frugiperda Sf21 (baculovirus)
T1 sequence (Q16853 27-763 limits assumed): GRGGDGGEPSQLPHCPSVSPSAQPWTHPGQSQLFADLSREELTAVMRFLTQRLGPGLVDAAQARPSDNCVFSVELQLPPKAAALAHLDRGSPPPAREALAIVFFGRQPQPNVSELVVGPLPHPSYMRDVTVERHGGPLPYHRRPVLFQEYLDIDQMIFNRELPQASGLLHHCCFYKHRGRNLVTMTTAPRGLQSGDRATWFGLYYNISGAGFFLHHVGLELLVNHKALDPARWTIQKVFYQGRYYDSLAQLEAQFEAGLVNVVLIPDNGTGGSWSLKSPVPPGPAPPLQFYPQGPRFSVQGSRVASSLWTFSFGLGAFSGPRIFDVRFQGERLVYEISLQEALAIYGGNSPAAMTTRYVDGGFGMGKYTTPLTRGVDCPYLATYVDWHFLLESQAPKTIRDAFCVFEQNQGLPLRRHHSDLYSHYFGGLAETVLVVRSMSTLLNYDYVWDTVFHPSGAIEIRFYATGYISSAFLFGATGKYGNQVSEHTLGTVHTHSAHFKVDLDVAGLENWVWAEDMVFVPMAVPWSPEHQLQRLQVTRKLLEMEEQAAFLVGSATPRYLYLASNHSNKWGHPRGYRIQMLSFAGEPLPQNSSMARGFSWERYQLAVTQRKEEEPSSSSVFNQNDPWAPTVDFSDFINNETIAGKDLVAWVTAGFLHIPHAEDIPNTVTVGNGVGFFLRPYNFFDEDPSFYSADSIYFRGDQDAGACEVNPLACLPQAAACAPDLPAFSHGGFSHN
The experiment in a line: VAP-1 oxidative deamination fluorescence assay (Amplex Red, benzylamine), inhibition. The conditions noted are these: for IC50: recombinant human VAP-1, 50 μM BA, 30 minutes at 37°C, three separate determinations, read-out: IC50 mean ± SD, Human. Format: biochemical. The procedure: (§1) Data processing was performed using Prism software.

Data set [2] deals with T2, recombinant rat VAP-1 (rrVAP-1) (Rattus norvegicus, UniProt O08590).
T2 construct: purchased R&D Systems (custom product); host or cells: Spodoptera frugiperda Sf21 (baculovirus)
T2 sequence (O08590 28-763 limits assumed): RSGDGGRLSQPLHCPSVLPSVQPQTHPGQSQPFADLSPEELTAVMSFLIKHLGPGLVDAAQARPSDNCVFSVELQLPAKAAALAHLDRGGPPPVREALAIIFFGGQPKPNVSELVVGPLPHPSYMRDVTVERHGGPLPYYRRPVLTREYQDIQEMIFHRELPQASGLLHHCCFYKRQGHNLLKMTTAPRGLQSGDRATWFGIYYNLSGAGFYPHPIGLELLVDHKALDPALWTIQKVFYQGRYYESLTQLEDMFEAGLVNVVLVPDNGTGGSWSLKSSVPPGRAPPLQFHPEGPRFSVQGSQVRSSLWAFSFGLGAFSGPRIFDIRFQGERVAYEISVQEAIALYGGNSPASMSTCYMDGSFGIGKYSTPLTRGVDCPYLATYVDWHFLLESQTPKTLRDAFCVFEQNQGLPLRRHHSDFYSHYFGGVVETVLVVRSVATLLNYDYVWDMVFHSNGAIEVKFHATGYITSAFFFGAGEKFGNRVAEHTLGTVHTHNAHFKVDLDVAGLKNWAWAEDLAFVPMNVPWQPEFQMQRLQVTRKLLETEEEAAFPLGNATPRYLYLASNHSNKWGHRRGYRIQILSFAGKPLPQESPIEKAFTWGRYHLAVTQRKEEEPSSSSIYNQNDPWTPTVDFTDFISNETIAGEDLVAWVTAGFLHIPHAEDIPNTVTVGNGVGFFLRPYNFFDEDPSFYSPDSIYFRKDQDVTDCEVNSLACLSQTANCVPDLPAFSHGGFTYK
The description is as above. Format: biochemical. Conditions: recombinant rat VAP-1, 50 μM BA, 30 minutes at 37°C, three separate determinations; read-out: IC50 mean ± SD, Rat. The procedure: as §1

Data set [3] relates to human VAP-1. Also noted: method as in PMID 23540955. Conditions: recombinant enzyme suspension from CHO cells expressing human VAP-1, 14C-BA; read-out: IC50 previously reported, Human; cited from earlier work.
The test system of data set [4] is rat VAP-1. Further details: method as in PMID 23540955. Conditions: recombinant enzyme suspension from CHO cells expressing rat VAP-1, 14C-BA; read-out: IC50 previously reported, Rat; cited from earlier work.
Data set [5] concerns rhVAP-1. Further details: method as in PMID 23664164. The conditions noted are these: recombinant human VAP-1; cited from earlier work.
Data set [6] relates to STZ-induced diabetic rats. Also noted: method as in PMID 23664164. Conditions: administered subcutaneously; cited from earlier work.
For data set [7], the target named is T3, recombinant mouse VAP-1 (rmVAP-1) (Mus musculus, UniProt O70423).
T3 sequence (O70423 28-765 limits assumed): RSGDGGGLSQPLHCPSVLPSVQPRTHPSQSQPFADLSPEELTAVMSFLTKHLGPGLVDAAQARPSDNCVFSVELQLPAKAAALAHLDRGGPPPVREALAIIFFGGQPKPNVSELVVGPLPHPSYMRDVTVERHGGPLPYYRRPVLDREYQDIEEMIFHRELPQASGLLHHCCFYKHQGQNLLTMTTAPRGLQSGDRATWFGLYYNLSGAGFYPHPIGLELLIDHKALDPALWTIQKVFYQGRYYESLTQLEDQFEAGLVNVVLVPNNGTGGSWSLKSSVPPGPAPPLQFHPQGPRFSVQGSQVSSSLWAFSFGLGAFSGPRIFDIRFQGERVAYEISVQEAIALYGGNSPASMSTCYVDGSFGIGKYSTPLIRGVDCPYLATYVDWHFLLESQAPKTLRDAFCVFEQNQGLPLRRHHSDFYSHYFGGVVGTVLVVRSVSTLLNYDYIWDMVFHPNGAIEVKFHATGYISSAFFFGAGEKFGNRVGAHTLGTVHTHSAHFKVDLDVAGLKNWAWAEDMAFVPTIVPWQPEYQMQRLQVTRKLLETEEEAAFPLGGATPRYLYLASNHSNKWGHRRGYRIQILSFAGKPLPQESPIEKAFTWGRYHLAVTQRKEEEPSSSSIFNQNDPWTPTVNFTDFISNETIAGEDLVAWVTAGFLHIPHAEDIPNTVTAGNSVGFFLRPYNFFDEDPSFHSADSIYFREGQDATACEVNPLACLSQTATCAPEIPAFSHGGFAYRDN
The experiment in a line: VAP-1 oxidative deamination fluorescence assay (Amplex Red, benzylamine), inhibition.
Protocol: (§2) The enzymatic activity of recombinant VAP-1 and inhibitor potency was determined using a variation of the fluorometric assay for measuring hydrogen peroxide formation [22]. Briefly, the assay measures the H2O2 generated during the oxidative deamination of an amine substrate (BA for inhibition purposes) by converting Amplex® Red to the fluorescent product, resorufin, via horseradish peroxidase (HRP). […] Stock solutions of Amplex Red (1 mM), HRP (10 U/mL), the substrates (200 μM BA for inhibition), and inhibitor were prepared in reaction buffer and added to the appropriate wells, that the final concentration in each well was 0.05 mM Amplex Red, 0.5 U/mL HRP, and 50 μM BA (saturating condition) in a total reaction volume of 0.1 mL.
(§3) Standard curves were prepared for each plate by serially diluting H2O2 in reaction buffer with equivalent concentrations of Amplex Red and HRP. A 10 μM solution of resorufin was prepared in reaction buffer and was dispensed in duplicate as the positive control for maximum fluorescence. Plates were incubated for 30 minutes at 37°C, protected from light under foil to minimize the resorufin artifactually formed when Amplex Red is exposed to light [28]. The plate was read at 530/35 emission and 590/35 excitation. The mean fluorescence of the background was subtracted from the mean fluorescence of the inhibitor concentration in the presence of BA. The percent control was calculated using equation (1). […] (1) %control=average fluorescence with inhibitor−background/average fluorescence of reaction without inhibitor−background×100, (2) %inhibition=100−%control.

For data set [8], the system named is VAP-1 in in vitro tissue preparations. Also noted: method as in PMID 8920635. The conditions noted are these: humans; cited from earlier work.
The target of data set [9] is recombinant mouse VAP-1 (Mus musculus, UniProt O70423). The experiment in a line: Substrate saturation curves, fluorometric assay detecting hydrogen peroxide. Conditions: recombinant mouse VAP-1, n = 1 plate.
Protocol: as §2, §3
(§4) Both substrates were incubated with recombinant VAP-1 in triplicate on three separate plates.
Data set [10] deals with rat and mouse disease models. Conditions: various rat and mouse disease models; cited from earlier work.
For data set [11], the system named is VAP-1 in bovine lung microsomes. Further details: method as in PMID 8694842. The conditions noted are these: coincubated with benzylamine; cited from earlier work.
Data set [12] relates to VAP-1. Also noted: method as in PMID 16570912. The conditions noted are these: cell-based inhibition assay; cited from earlier work.
Data set [13] concerns lysyl oxidase (LOX). Further details: method as in PMID 17872591, PMID 17452500, PMID 18469024. The conditions noted are these: cited from earlier work.
Data set [14] deals with recombinant rat VAP-1 (Rattus norvegicus, UniProt O08590). The data set is described as follows: Substrate saturation curves, fluorometric assay detecting hydrogen peroxide. Conditions: recombinant rat VAP-1, n = 1 plate.
Protocol: as §2, §3, §4
The target of data set [15] is recombinant human VAP-1 (Homo sapiens, UniProt Q16853). The description is as above. The conditions noted are these: recombinant human VAP-1, n = 1 plate.
Protocol: as §2, §3, §4
Data set [16] has as its system VAP-1 from rat lung homogenates. Further details: method as in PMID 16081681. The conditions noted are these: radiolabeled substrate, read-out: IC50 previously reported, Rat; cited from earlier work.
Data set [17] relates to VAP-1 from human umbilical cord homogenates. Further details: method as in PMID 16081681. The conditions noted are these: radiolabeled substrate, read-out: IC50 previously reported, Human; cited from earlier work.
The subject of data set [18] is mice. Further details: method as in PMID 16081681, PMID 23263543. The conditions noted are these: oral administration to mice, ulcerative colitis and LPS-induced endotoxemia; cited from earlier work.
For data set [19], the system named is rats. Further details: method as in PMID 16081681, PMID 23263543. Conditions: oral administration to rats, carrageenan footpad model; cited from earlier work.
For data set [20], the system named is VAP-1 from rat aorta homogenates. Conditions: read-out: IC50 previously reported, Rat, 14C-BA; cited from earlier work.
For data set [21], the system named is human VAP-1 from aorta membrane preparations. The conditions noted are these: read-out: IC50 previously reported, Human, LC-MS/MS benzaldehyde formation; cited from earlier work.
In data set [22] the target is human VAP-1 recombinant enzymes. Conditions: read-out: IC50 previously reported, Human, LC-MS/MS benzaldehyde formation; cited from earlier work.

Turning to `CC(=O)Nc1nc(CCc2ccc(NC(=N)N)cc2)c(Cc2ccc(S(C)(=O)=O)cc2)s1` [Astellas compound 35c], the IC50 in data set [1] was 0.0225 ± 0.0069 µM; in data set [2] it was 0.0504 ± 0.0068 µM; in data set [3] it was 0.02 µM; in [4], 0.072 µM; in data set [5] it was 0.23 µM; in data set [7], 0.414 ± 0.113 µM. Besides, the Ocular permeability entry in [6] is listed as “significantly reduced ocular permeability”.
Usually Km stands for the concentration of substrate that gives half-maximal velocity. On to `NCCc1ccc(O)cc1` [TYR, tyramine], for which the Michaelis constant (Km) in data set [8] is 10.5 mM. In addition, the “Substrate turnover (in words)” value in data set [9] was “low reaction rates; also recorded: not a substrate”.
As to `CC(C)(C)NC(=O)c1ccc(OC/C(=C/F)CN)cc1` [PXS-4728A], the “Leukocyte adhesion and migration to sites of lung inflammation” value in [10] is “reduced leukocyte adhesion and migration”.
With `NNCCc1ccccc1` [phenelzine], the “Potency relative to semicarbazide” value in data set [11] is listed as “over 100 times”.
Turning to `NNC(N)=O` [Semiarid (SEM), semicarbazide], the “Difference in IC50 between human and rat VAP-1” value in data set [1] (85.9 μM vs. 993 μM) is approximately 10 fold. In addition, the IC50 in data set [1] was determined as 85.9 ± 12.9 µM; in [2], 993 ± 1220 µM; in data set [7] (read-out: IC50 mean ± SD, Mouse, recombinant mouse VAP-1, 50 μM BA, 30 minutes at 37°C, three separate determinations), 295 ± 29 µM. In addition, the “Semicarbazide required for inhibition relative to LJP-1207” value in data set [12] was 100 x. Also, the “Inhibition of lysyl oxidase (in words)” value in [13] is listed as “inhibits”.
For the compound `NCCc1ccccc1` [Phenylethylamine (PEA), phenylethylamine], the Km in data set [8] is 7.9 mM.
In the case of `NNc1ccccc1` [phenylhydrazine], the “Potency relative to semicarbazide” value in data set [11] is given as “over 100 times”.
On to `NCCc1c[nH]c2ccccc12` [tryptamine], for which the “Substrate turnover (in words)” value in data set [9], in data set [14] and in data set [15] was “low reaction rates” each time.
With `C=C(CNN)c1ccccc1` [LJP-1207], the IC50 was 0.252 ± 0.0225 µM in [1]; 0.12 ± 0.0067 µM in [2]; 0.0075 µM in data set [16]; 0.017 µM in [17]; 0.102 ± 0.0478 µM in data set [7]. Besides, the Reduction of inflammation entry in [18] and in [19] was “effective in reducing inflammation” in each case.
In the case of `NNc1nncc2ccccc12` [Hydralazine (HYD), hydralazine], the IC50 in [1] was 7.75 ± 2.32 µM; in data set [2], 3.13 ± 0.123 µM; in data set [20] it was 0.025 µM; in data set [21], 6.4 µM; in data set [22], 26.5 µM; in [7] it was 1.18 ± 0.092 µM. Moreover, the “Potency relative to semicarbazide” value in data set [11] is on record as “twenty times more potent”.
